Measurements as given in US8138309B2, “Modified rubisco large subunit n-methyltransferase useful for targeting molecules to the active-site vicinity of ribulose-1,5-bisphosphate” (University of Kentucky Research Foundation, priority 2008, dated 2012).

Target: T1, spinach Rubisco (Spinacia oleracea, UniProt P00875)
T1 construct: Spinach and pea Rubisco, and pea Rubisco LSMT were purified according to McCurry; from tissue
Test: Rubisco carboxylase assay (14CO2 fixation, O2-free, CO2-free buffers), spinach Rubisco
Format: biochemical
Details: added to the Rubisco complex containing bound CA before the assay; AdoMet 100 μM
Method: Kinetic analyses were performed as described previously for Rubisco Lorimer, G. H., Badger, M. R., and Andrews, T. J. Biochemistry 15, 529-536.1976. Pierce, J. W., McCurry, S. D., Mulligan, R. M., and Tolbert, N. E. Methods Enzymol. 89 Pt D, 47-55.1982. Assays were conducted under O2 free conditions with CO2-free buffers as described below, and contained normalized Rubisco and hCAII activities, unless otherwise indicated. The assays contained, unless otherwise indicated, 100 mM Bicine adjusted to pH 8.2 with a saturated NaOH solution, 20 mM MgCl2, 2 mM dithiothreitol, 0.5 mM RuBP, and NaH^14 CO3 (1.0 mCi/mmol). Reactions were initiated by the addition of activated Rubisco, or conjugate, injected into an 8 mL serum capped vial (first flushed with nitrogen). Activation of Rubisco or conjugate was performed at 2 mg/mL by incubation at 30 C for 15 min in 50 mM Bicine, pH 8.2, containing 20 mM MgCl2 and 15 mM NaH^14CO3. Assay times, enzyme masses, volumes, or specific activities were adjusted to limit substrate consumption to 10% or less. The assays were terminated by the addition by 2N HCl (0.4 volumes), and the liquid evaporated to dryness under a stream of air at 50° C. Radioactivity was determined with a liquid scintillation analyzer (Packard 2000 CA), after addition of 0.5 mL H20 and 4.5 mL of cocktail (Bio-Safe II, RPI). […]

effect on the stimulation of carboxylase activity by bound CA: the effect of bound CA was abolished
SMILES: C[S+](CC[C@H](N)C(=O)[O-])C[C@H]1O[C@@H](n2cnc3c(N)ncnc32)[C@H](O)[C@@H]1O (stereo partly shown) [AdoMet, S-adenosylmethionine]
